How the values were obtained:
CYP3A = CYP3A (Homo sapiens, UniProt P08684); experiment: In vitro inhibitory activity against common CYP450 enzymes: CYP3A (midazolam); assay type: in vitro ADME; conditions: human, human liver microsomes, probe Midazolam, substrate Midazolam
Method: (§1) A working solution of the test compound was prepared in a solvent of dimethyl sulfoxide (DMSO) (starting at a final concentration of 50 μM, 3-fold dilution of 7 concentration points). The corresponding microsomes (CORNING, Cat No.452117) and the corresponding substrate solution were prepared (components were shown in Table 2). The working solution of the test compound and the corresponding microsomes were mixed with the corresponding substrate solution and the HLM working solution. The mixture was preheated in a 37.0° C. water bath for 10 min. NADPH cofactor (BONTAC, Cat No.BT04) was added. The resultant mixture was incubated for 10 min in a 37.0° C. water bath. The reaction was terminated by adding cold stop solution. [table] [table] The sample was centrifuged at 4000 rpm for 20 min to precipitate protein and the supernatant was transferred to HPLC water and shaken for 10 min.

CYP2C9 = CYP2C9 (Homo sapiens (Human), UniProt P11712); experiment: In vitro inhibitory activity against common CYP450 enzymes: CYP2C9; assay type: in vitro ADME; conditions: microsomes, substrate Diclofenac
Chain of CYP2C9 (P11712 whole entry): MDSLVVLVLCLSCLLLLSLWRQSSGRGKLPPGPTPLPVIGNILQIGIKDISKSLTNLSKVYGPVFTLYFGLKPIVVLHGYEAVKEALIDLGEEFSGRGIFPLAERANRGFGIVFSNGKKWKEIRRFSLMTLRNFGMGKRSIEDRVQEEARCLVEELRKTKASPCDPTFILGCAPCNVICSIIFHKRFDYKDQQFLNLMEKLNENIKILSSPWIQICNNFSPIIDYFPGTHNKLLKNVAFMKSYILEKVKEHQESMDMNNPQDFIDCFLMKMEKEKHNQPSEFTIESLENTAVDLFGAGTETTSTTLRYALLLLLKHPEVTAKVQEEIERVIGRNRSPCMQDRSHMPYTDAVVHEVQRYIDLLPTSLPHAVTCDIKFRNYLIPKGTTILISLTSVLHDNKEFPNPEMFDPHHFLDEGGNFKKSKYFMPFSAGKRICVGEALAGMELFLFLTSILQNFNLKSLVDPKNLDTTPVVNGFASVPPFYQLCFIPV
Method: as §1

CYP2D6 = CYP2D6 (Homo sapiens (Human), UniProt P10635); experiment: In vitro inhibitory activity against common CYP450 enzymes: CYP2D6; assay type: in vitro ADME; conditions: microsomes, substrate Dextromethorphan
Chain of CYP2D6 (P10635 whole entry): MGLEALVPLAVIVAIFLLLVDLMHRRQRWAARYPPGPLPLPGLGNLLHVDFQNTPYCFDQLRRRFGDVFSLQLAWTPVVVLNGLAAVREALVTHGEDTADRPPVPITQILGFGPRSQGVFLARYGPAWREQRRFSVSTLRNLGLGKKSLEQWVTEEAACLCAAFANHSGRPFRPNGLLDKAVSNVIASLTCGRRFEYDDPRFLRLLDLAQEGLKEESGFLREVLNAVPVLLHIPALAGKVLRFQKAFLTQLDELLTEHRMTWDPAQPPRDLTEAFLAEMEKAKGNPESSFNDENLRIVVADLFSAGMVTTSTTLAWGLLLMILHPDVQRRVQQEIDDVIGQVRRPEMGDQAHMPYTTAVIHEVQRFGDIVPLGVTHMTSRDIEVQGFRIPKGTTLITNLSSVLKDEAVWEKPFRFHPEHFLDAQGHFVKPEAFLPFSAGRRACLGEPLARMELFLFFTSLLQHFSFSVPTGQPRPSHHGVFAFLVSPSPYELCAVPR
Method: as §1

human CYP11B1 = human CYP11B1 (Homo sapiens (Human), UniProt P15538); experiment: Inhibitory activity against hCYP11B1 in G-402 CYP11B1 high expression stable transformants (cortisol HTRF); assay type: cell-based; conditions: G-402 CYP11B1 cells, 0.2 μM 11-deoxycortisol, 16 hours; read-out: hCYP11B1 Abs IC50
Chain of human CYP11B1 (P15538 25-503): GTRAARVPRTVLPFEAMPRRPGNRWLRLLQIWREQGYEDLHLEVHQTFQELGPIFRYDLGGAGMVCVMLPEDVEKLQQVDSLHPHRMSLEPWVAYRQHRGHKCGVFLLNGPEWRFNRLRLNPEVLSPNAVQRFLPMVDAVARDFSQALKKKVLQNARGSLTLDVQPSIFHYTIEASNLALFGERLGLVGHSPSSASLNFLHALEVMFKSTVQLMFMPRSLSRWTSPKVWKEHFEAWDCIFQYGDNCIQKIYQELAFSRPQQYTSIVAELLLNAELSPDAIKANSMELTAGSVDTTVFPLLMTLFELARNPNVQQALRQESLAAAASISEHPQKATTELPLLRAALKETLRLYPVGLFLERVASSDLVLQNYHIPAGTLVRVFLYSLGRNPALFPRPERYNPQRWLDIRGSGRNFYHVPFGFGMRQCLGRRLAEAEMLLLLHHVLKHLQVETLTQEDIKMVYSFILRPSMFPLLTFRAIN
Method: 1. Experimental System: G-402 CYP11B2 or CYP11B1 High Expression Stable Transformants
The above-mentioned high-expression stable transformants were constructed based on human […] cell line G-402. The artificial lentiviruses were introduced into human CYP11B2 (NM_000498.3) and CYP11B1 (NM_000497.4), respectively.
Maintenance medium: McCoy's 5A (modified, #16600082, GIBCO)+10% FBS (GIBCO)+1 μg/mL puromycin (A1113803, GIBCO).
Resuscitation and seeding medium: McCoy's 5A (modified, #16600082, GIBCO)+10% FBS (GIBCO).
Reaction medium: DMEM/F12 (#11320033, GIBCO)+2.5% activated charcoal filtered FBS (S11695, R & D).
Seeding: Cells were cultured to a suitable state after resuscitation with maintenance medium, and 96-well flat plates were seeded with seeding medium according to 1×10^4/100 μL/well (unified cell volume).
Changing solution: The supernatant was aspirated and discarded after seeding overnight (>12 hours) and adherence. 100-150 μL/well serum-free medium was added, and after being aspirated. After aspiration, 50 μL/well reaction medium was added for later use.
Formulation: Compound was diluted with reaction medium containing 0.4 μM substrate (final experimental concentration is 0.2 μM):
CYP11B1 substrate: 11-deoxycortisol (11-deoxycortisol, S4775, selleckchem). The final reaction concentration was 0.2 μM.
Loading: The above compound dilutions were added to the cell plates at 50 μL/well. The background and control wells were set.
Treating and sampling: The cell plates were incubated in a cell incubator for 16 hours after loading, and then each cell plate was centrifuged at 450 g for 2 min. 75 μL supernatant was transferred to a collection plate and frozen at −80° C. for future use (or direct detection).
Detection: Homogeneous time-resolved fluorescence kit (Cisbio HTRF kit, Cat.64ALDPEG, Cat.62CRTPEG) was used to determine the concentration of aldosterone or cortisol in the supernatant.
Analysis: The absolute IC50 (Abs IC50) for each compound was calculated using a four parameter fit.

aldosterone synthase = aldosterone synthase (Homo sapiens (Human), UniProt P19099); conditions: phase I clinical study, cited from earlier work
Chain of aldosterone synthase (P19099 25-503): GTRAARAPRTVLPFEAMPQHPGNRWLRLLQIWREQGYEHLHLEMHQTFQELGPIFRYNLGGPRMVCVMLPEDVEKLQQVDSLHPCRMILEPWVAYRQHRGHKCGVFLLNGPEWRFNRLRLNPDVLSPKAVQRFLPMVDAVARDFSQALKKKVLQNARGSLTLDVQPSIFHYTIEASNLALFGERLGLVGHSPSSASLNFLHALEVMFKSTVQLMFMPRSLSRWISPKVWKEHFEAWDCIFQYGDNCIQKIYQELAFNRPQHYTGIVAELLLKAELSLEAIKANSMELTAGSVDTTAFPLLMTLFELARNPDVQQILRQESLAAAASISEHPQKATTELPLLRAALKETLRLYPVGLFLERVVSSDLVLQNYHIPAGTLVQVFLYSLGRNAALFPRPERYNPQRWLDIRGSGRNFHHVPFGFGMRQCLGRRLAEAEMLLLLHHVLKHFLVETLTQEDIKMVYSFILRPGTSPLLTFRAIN

aldosterone synthesis = experiment: Pharmacodynamic test in cynomolgus monkeys with ACTH stimulation: aldosterone in plasma; assay type: in vivo, cynomolgus monkeys (Macaca fascicularis)
Excerpt: (§2) Adult cynomolgus monkeys (Macaca fascicularis) with suitable body weight and age were selected. 1 male and 1 female cynomolgus monkeys were used for experiment. The adaptation period was 1 week. On the day of the experiment, monkeys were individually housed in stainless steel mesh cages for testing.
(§3) Oral treatment and ACTH working solution (working solution diluted to the desired concentration in PBS sterile solution by ultrapure water filtration through a 0.22 μm filter using Tetracosactrin (HY-P0060, MCE)) were administered as follows: • T=0, 2 monkeys in each group were orally administered 0.5 mg/kg (compound was suspended in 5% aqueous sodium hydroxymethylcellulose solution as vehicle) in a fixed volume of 2 mL/kg; • T=+1 hour (i.e., 1 hour after administration), 14.5 μg/kg of the aforementioned ACTH working solution was injected intramuscularly.
(§4) Sampling test: Blood samples (collected in EDTA anticoagulant tubes) were collected before oral administration (Pre-dose) and 0.5 h, 1 h, 2 h, 4 h, 6 h and 12 h after administration for cortisol concentration measurement in plasma. The blood was centrifuged at 10000 rpm for 15 minutes at 4° C., followed by separation of the plasma and uniform storage at −80° C. for further analysis using an Roche biochemical analyzer to detect aldosterone and cortisol in plasma, and a portion of the plasma (0.5 h, 1 h, 2 h, 4 h, 6 h, and 12 h after administration, and an additional blood collection after 24 h) was taken simultaneously to determine the pharmacokinetic parameters by LC/MS.
(§5) The above experiment was repeated except that: T=0, two monkeys in each group were orally administered at a dose of 0.05 mg/kg (compound was suspended in 5% aqueous sodium hydroxymethylcellulose as vehicle) in a fixed volume of 2 mL/kg.

cortisol levels = experiment: Pharmacodynamic test in cynomolgus monkeys with ACTH stimulation: cortisol in plasma; assay type: in vivo, cynomolgus monkeys (Macaca fascicularis)
Excerpt: as §2, §3, §4, §5

CYP1A2 = CYP1A2 (Homo sapiens (Human), UniProt P05177); experiment: In vitro inhibitory activity against common CYP450 enzymes: CYP1A2; assay type: in vitro ADME; conditions: microsomes, substrate Phenacetin; read-out: IC50 CYP1A2
Chain of CYP1A2 (P05177 whole entry): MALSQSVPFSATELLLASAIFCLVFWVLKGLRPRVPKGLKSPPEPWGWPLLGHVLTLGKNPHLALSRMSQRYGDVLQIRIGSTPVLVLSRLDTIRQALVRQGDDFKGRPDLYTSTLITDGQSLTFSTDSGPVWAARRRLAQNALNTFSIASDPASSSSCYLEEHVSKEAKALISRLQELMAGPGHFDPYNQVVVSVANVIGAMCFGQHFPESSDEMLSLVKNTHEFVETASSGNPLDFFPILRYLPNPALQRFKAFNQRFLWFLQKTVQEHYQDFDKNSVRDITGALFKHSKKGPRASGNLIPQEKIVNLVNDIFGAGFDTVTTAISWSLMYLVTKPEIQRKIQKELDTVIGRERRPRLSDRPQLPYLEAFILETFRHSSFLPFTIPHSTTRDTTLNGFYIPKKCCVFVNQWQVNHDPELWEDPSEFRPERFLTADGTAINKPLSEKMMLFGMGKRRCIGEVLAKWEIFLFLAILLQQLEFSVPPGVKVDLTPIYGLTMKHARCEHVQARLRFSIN
Method: as §1

[1] = 0.05 mg/kg oral, 1 h (ACTH at +1 hour)
[2] = 0.5 mg/kg oral, 1 h (ACTH at +1 hour)

Chain of CYP3A (P08684 2-503 limits assumed): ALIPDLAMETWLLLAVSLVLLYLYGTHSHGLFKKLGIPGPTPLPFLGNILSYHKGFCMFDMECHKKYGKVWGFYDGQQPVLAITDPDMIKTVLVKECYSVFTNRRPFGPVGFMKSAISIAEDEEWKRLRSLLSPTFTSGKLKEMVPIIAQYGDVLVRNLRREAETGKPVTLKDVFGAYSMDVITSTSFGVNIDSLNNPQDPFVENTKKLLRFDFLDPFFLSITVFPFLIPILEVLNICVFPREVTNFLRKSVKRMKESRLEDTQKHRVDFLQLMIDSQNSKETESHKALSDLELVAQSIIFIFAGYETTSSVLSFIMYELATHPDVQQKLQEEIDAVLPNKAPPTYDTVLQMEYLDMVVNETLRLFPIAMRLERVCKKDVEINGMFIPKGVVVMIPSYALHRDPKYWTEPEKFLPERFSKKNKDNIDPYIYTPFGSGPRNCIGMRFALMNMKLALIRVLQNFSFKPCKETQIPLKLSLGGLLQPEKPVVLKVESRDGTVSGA

SMILES: CCC(=O)N[C@@H]1CCCc2c(-c3ccc4c(c3)CCC(=O)N4C)cncc21 [Baxdrostat, reference compound]
- IC50 at 10 min (CYP3A): > 50 µM
- IC50 (CYP2C9): 35.2 µM
- IC50 (CYP2D6): > 50 µM
- IC50 (human CYP11B1): 3.37 µM
- reduction of aldosterone level in plasma (aldosterone synthase; dose-dependent): more than 70%
- inhibition of aldosterone synthase relative to inhibition of cortisol synthesis (aldosterone synthase): 100 times
- Aldosterone Concentration in Plasma (aldosterone synthesis; 0.05 mg/kg oral, 0.5 h): 846.13 pg/mL
- Aldosterone Concentration in Plasma (aldosterone synthesis; [1]): 964.09 pg/mL
- Aldosterone Concentration in Plasma (aldosterone synthesis; 0.05 mg/kg oral, 2 h): 568.08 pg/mL
- Aldosterone Concentration in Plasma (aldosterone synthesis; 0.05 mg/kg oral, 4 h): 119.97 pg/mL
- Aldosterone Concentration in Plasma (aldosterone synthesis; 0.05 mg/kg oral, 6 h): 101.14 pg/mL
- Aldosterone Concentration in Plasma (aldosterone synthesis; 0.05 mg/kg oral, 12 h): 139.85 pg/mL
- Aldosterone Concentration in Plasma (aldosterone synthesis; 0.05 mg/kg oral, Pre-dose): 292.42 pg/mL
- Aldosterone Concentration in Plasma (aldosterone synthesis; 0.5 mg/kg oral, 0.5 h): 593.37 pg/mL
- Aldosterone Concentration in Plasma (aldosterone synthesis; [2]): 361.74 pg/mL
- Aldosterone Concentration in Plasma (aldosterone synthesis; 0.5 mg/kg oral, 2 h): 119.96 pg/mL
- Aldosterone Concentration in Plasma (aldosterone synthesis; 0.5 mg/kg oral, 4 h): 83.97 pg/mL
- Aldosterone Concentration in Plasma (aldosterone synthesis; 0.5 mg/kg oral, 6 h): 86.11 pg/mL
- Aldosterone Concentration in Plasma (aldosterone synthesis; 0.5 mg/kg oral, 12 h): 92.61 pg/mL
- Aldosterone Concentration in Plasma (aldosterone synthesis; 0.5 mg/kg oral, Pre-dose): 126.77 pg/mL
- Cortisol Concentration in Plasma (cortisol levels; 0.05 mg/kg oral, 0.5 h): 1136.1 pg/mL
- Cortisol Concentration in Plasma (cortisol levels; [1]): 1293.5 pg/mL
- Cortisol Concentration in Plasma (cortisol levels; 0.05 mg/kg oral, 2 h): 1527.0 pg/mL
- Cortisol Concentration in Plasma (cortisol levels; 0.05 mg/kg oral, 4 h): 949.2 pg/mL
- Cortisol Concentration in Plasma (cortisol levels; 0.05 mg/kg oral, 6 h): 499.4 pg/mL
- Cortisol Concentration in Plasma (cortisol levels; 0.05 mg/kg oral, 12 h): 392.6 pg/mL
- Cortisol Concentration in Plasma (cortisol levels; 0.05 mg/kg oral, Pre-dose): 784.2 pg/mL
- Cortisol Concentration in Plasma (cortisol levels; 0.5 mg/kg oral, 0.5 h): 1004.1 pg/mL
- Cortisol Concentration in Plasma (cortisol levels; [2]): 964.8 pg/mL
- Cortisol Concentration in Plasma (cortisol levels; 0.5 mg/kg oral, 2 h): 1288.5 pg/mL
- Cortisol Concentration in Plasma (cortisol levels; 0.5 mg/kg oral, 4 h): 556.6 pg/mL
- Cortisol Concentration in Plasma (cortisol levels; 0.5 mg/kg oral, 6 h): 337.0 pg/mL
- Cortisol Concentration in Plasma (cortisol levels; 0.5 mg/kg oral, 12 h): 344.6 pg/mL
- Cortisol Concentration in Plasma (cortisol levels; 0.5 mg/kg oral, Pre-dose): 596.4 pg/mL
- IC50 (CYP1A2): > 50 µM

Reference: patent publication US20250361240A1, “PYRANOPYRIDINE COMPOUND, PROCESS FOR PREPARING THE SAME, PHARMACEUTICAL COMPOSITION AND USE THEREOF” (Zhejiang Yangli Pharmaceutical Technology Co., Ltd., priority 2024, published 2025)
